The text below walks through data of patent US6489098B1, “Means and methods for monitoring nucleoside reverse transcriptase inhibitor antiretroviral therapy and guiding therapeutic decisions in the treatment of HIV/AIDS” (ViroLogic, Inc., priority 1998, dated 2002).

“And” between values parts separate entries of the source, which are not always exact repeats. Equal values may be shown once. “Also recorded” adds a separate entry of the source.

The test system of assay [1] is HIV-1 RT mutant resistance test vector A62V+T69SSA+V75I. Kind of assay: Phenotypic susceptibility assay, site directed RTV A62V+T69SSA+V75I. In kind it is cell-based. As to conditions: for Average fold reduction in susceptibility: RTV with 62 + 69 + 751 (A62V, T69SSA, V75I), 1 replicate; for effect on susceptibility (words): RTV with A62V+T69SSA+V75I. As to the method: (§1) Resistance tests were carried out with resistance test vectors using two host cell types. Resistance test vector viral particles were produced by a first host cell (the resistance test vector host cell) that was prepared by transfecting a packaging host cell with the resistance test vector and the packaging expression vector. The resistance test vector viral particles were then used to infect a second host cell (the target host cell) in which the expression of the indicator gene is measured.
(§2) The resistance test vectors containing a functional luciferase gene cassette were constructed and host cells were transfected with the resistance test vector DNA. The resistant test vectors contained patient-derived reverse transcriptase and protease sequences that were either susceptible or resistant to the antiretroviral agents, such as nucleoside reverse transcriptase inhibitors, non-nucleoside reverse transcriptase inhibitors and protease inhibitors. The resistance test vector viral particles produced by transfecting the resistance test vector DNA into host cells, either in the presence or absence of protease inhibitors, were used to infect target host cells grown either in the absence of NRTI or NNRTI or In the presence of increasing concentrations of the drug. The amount of luciferase activIty produced in infected target host cells in the presence of drug was compared to the amount of luciferase produced in infected target host cells in the absence of drug. Drug resistance was measured as the amount of drug required to inhibit by 50% the luciferase activity detected in the absence of drug (Inhibitory concentration 50%, IC50). The IC50 values were determined by plotting percent drug inhibition vs. log 10 drug concentration.
(§3) Host cells were seeded in 10-cm-diameter dishes and were transfected several days after plating with resistance test vector plasmid DNA and the envelope expression vector. Transfections were performed using a calcium-phosphate precipitation procedure. The cell culture media containing the DNA precipitate was replaced with fresh medium, from one to 24 hours, after transfection. Cell culture media containing resistance test vector viral particles was harvested one to four days after transfection and was passed through a […] filter before being stored at −80° C. HIV capsid protein (p24) levels in the harvested cell culture media were determined by an EIA method as described by the manufacturer (SIAC; Frederick, Md.). Before infection, target cells (293 and 293/T) were plated in cell culture media. Control infections were performed using cell culture media from mock transfections (no DNA) or transfections containing the resistance test vector plasmid DNA without the envelope expression plasmid. One to three or more days after infectIon the media was removed and cell lysis buffer (Promega) was added to each well. Cell lysates were assayed for luciferase activity (FIG. 3). The inhibitory effect of the drug was determined using the following equation:
(§4) % luciferase inhibition=1−(RLUluc[drug]÷RLUluc)×100
(§5) where RLUluc [drug] is the relative light unit of luciferase activity in infected cells in the presence of drug and RLUluc is the Relative Light Unit of luciferase activity in infected cells in the absence of drug. IC50 values were obtained from the sigmoidal curves that were generated from the data by plotting the percent inhibition of luciferase activity vs. the log 10 drug concentration. The drug inhibition curves are shown in (FIG. 3).
(§6) Genotypic changes that are observed to correlate with changes in phenotypic patterns of drug susceptibility are evaluated by construction of resistance test vectors containing the specific mutation on a defined, wild-type (drug susceptible) genetic background. Mutations may be incorporated alone and/or in combination with other known drug resistance mutations that are thought to modulate the susceptibility of HIV to a certain drug or class of drugs. […]

Assay [2] concerns HIV-1 RT mutant resistance test vector 41 + 210 + 215. As to the kind of experiment: Phenotypic susceptibility assay, site directed RTV 41 + 210 + 215. The format is cell-based. As to conditions: RTV with 41 + 210 + 215; 3 replicates. On the procedure: as §1, §2, §3, §4, §5, §6
Assay [3] relates to HIV-1 RT mutant resistance test vector M41L-T69SSA-T215Y-RTV. As to the kind of experiment: Phenotypic susceptibility assay, site directed RTV M41L+T69SSA+T215Y. In kind it is cell-based. As to conditions: for Average fold reduction in susceptibility: RTV with 41 + 69 + 215 (M41L, T69SSA, T215Y), 2 replicates; for effect on susceptibility (words): RTV with M41L+T69SSA+T215Y. As to the method: as §1, §2, §3, §4, §5, §6

Assay [4] deals with HIV-1 RT mutant resistance test vector M41L-A62V-T69SSA-T215Y-RTV. As to the kind of experiment: Phenotypic susceptibility assay, site directed RTV M41L+A62V+T69SSA+T215Y. In kind it is cell-based. As to conditions: RTV with M41L+A62V+T69SSA+T215Y; addition of A62V to M41L+T69SSA+T215Y. As to the method: as §1, §2
as §3, with “Cell lysates were assayed for luciferase activity (FIG. 3).” left out
as §4
where RLUluc [drug] is the relative light unit of luciferase activity in infected cells in the presence of drug and RLUluc is the Relative Light Unit of luciferase activity in infected cells in the absence of drug. IC50 values were obtained from the sigmoidal curves that were generated from the data by plotting the percent inhibition of luciferase activity vs. the log 10 drug concentration.
Mutations may be incorporated alone and/or in combination with other known drug resistance mutations that are thought to modulate the susceptibility of HIV to a certain drug or class of drugs. Mutations are introduced into the resistance test vector through any of the widely known methods for site-directed mutagenesis. In one embodiment of this invention the mega-primer PCR method for site-directed mutagenesis is used.

In assay [5] the test system is HIV-1 RT mutant resistance test vector 41 + 62 + 69 + 75S + 210 + 215. Kind of assay: Phenotypic susceptibility assay, site directed RTV 41 + 62 + 69 + 75S + 210 + 215. In kind it is cell-based. As to conditions: RTV with 41 + 62 + 69 + 75S + 210 + 215; 1 replicate. On the procedure: as §1, §2, §3, §4, §5, §6
Assay [6] relates to ZDV-resistant HIV isolates. As to conditions: cited from earlier work.

For the compound `Cc1cn([C@H]2C=C[C@@H](CO)O2)c(=O)[nH]c1=O` [d4T, stavudine], the “Average fold reduction in susceptibility” value in assay [1] was 1.40 fold; in assay [2], 1.94 fold; in assay [3], 5 fold and 5.20 fold; in assay [5], 14.13 fold. The “effect on susceptibility (words)” value in assay [1] is “did not reduce d4T susceptibility more than the T69SSA mutation alone”; in assay [3], “significant decrease in both d4T and AZT susceptibility”; in assay [4], “did reduce d4T susceptibility more than the T69SSA mutation alone; also recorded: further reduction in susceptibility”. For the same compound, the “cross-resistance of ZDV-resistant strains” value (“cross-resistance” for short) in assay [6] was “Cross-resistance”.

Regarding `Cc1cn([C@H]2C[C@H](N=[N+]=[N-])[C@@H](CO)O2)c(=O)[nH]c1=O` [AZT, zidovudine], the “Average fold reduction in susceptibility” value in assay [1] is 2 fold and 0.71 fold; in assay [2], 56.14 fold; in assay [3] it was 160 fold and 140 fold and 141.71 fold; in assay [5] it was over 1000 fold. The “effect on susceptibility (words)” value in assay [1] was “completely suppressed the reduced AZT susceptibility; also recorded: completely suppressed the six-fold AZT resistance”; in assay [3], “significant decrease in both d4T and AZT susceptibility”; in assay [4], “reduced AZT susceptibility more than the combination of M41L and T215Y mutations alone; also recorded: further reduction in susceptibility”.

Regarding `Nc1ccn([C@H]2CC[C@@H](CO)O2)c(=O)n1` [ddC, zalcitabine], the “Average fold reduction in susceptibility” value is 1.89 fold in assay [1], 1.36 fold in assay [2], 1.41 fold in assay [3] and 2.58 fold in assay [5]. In addition, the “effect on susceptibility (words)” value in assay [4] is “no effect on susceptibility”. For the same compound, in assay [6], the “cross-resistance” value is recorded as “no evidence that mutations selected for during ZDV monotherapy influence sensitivity”.

`Nc1nc(NC2CC2)c2ncn([C@H]3C=C[C@@H](CO)C3)c2n1` [ABC, abacavir]: the “Average fold reduction in susceptibility” value stood at 2.56 fold in assay [1], 2.25 fold in assay [2], 9.69 fold in assay [3] and 14.21 fold in assay [5]. Moreover, the “effect on susceptibility (words)” value in assay [4] is “no effect on susceptibility”.

Regarding `O=c1[nH]cnc2c1ncn2[C@H]1CC[C@@H](CO)O1` [ddI, didanosine], the “Average fold reduction in susceptibility” value in assay [1] is on record as 1.17 fold; in assay [2], 1.08 fold; in assay [3] it was 2.02 fold; in assay [5] it was 5.12 fold. For the same compound, the “effect on susceptibility (words)” value in assay [4] was “further reduction in susceptibility”. Further, in assay [6], the “cross-resistance” value was “no evidence that mutations selected for during ZDV monotherapy influence sensitivity”.
